Tested on: T1, CLas GMPS
T1 construct: gene guaA
Details: read-out: (NH4)2SO4, Km mM; saturating XMP and ATP, 20 mM MgCl2, pH 8.5; salt printed as (NH4)2SO4 in table, NH4Cl in methods; text prints 10.9 ± 1.9 mM

SMILES: N [NH4+]
- Km: 10.9 ± 1.3 mM

Reference: paper PMC8301025 (Biology, 2021)
